According to ChEMBL document CHEMBL4017516, “Sulfonium as a Surrogate for Ammonium: A New α7 Nicotinic Acetylcholine Receptor Partial Agonist with Desensitizing Activity” (J Med Chem, 2017):
Active and inactive are the calls of the source. No cut-off for these calls is given here.

Experiments:
[1] = molecular target: T1, Neuronal acetylcholine receptor subunit alpha-7 (Homo sapiens, UniProt P36544); assay: Silent agonist activity at human alpha7 nAChR expressed in Xenopus laevis oocytes assessed as induction of PNU-120596-stimulated peak current response at 10 uM administered for 12 secs followed by washout period for 181 secs by voltage clamp technique relative to acetylcholine; assay type: cell-based
[2] = molecular target: T1, Neuronal acetylcholine receptor subunit alpha-7; assay: Silent agonist activity at human alpha7 nAChR expressed in Xenopus laevis oocytes assessed as induction of PNU-120596-stimulated peak current response at 30 uM administered for 12 secs followed by washout period for 181 secs by voltage clamp technique relative to acetylcholine; assay type: cell-based
[3] = molecular target: T1, Neuronal acetylcholine receptor subunit alpha-7; assay: Silent agonist activity at human alpha7 nAChR expressed in Xenopus laevis oocytes assessed as induction of PNU-120596-stimulated peak current response at 100 uM administered for 12 secs followed by washout period for 181 secs by voltage clamp technique relative to acetylcholine; assay type: cell-based
[4] = molecular target: T1, Neuronal acetylcholine receptor subunit alpha-7; assay: Partial agonist activity at human alpha7 nAChR expressed in Xenopus laevis oocytes assessed as induction of maximum current response administered for 12 secs followed by washout period for 181 secs by voltage clamp technique; assay type: cell-based
[5] = molecular target: T1, Neuronal acetylcholine receptor subunit alpha-7; assay: Partial agonist activity at human alpha7 nAChR expressed in Xenopus laevis oocytes assessed as induction of maximum current response at 100 uM administered for 12 secs followed by washout period for 181 secs by voltage clamp technique relative to acetylcholine; assay type: cell-based
[6] = molecular target: T1, Neuronal acetylcholine receptor subunit alpha-7; assay: Antagonist activity at human alpha7 nAChR expressed in Xenopus laevis oocytes assessed as inhibition of acetylcholine-induced current response administered for 12 secs followed by washout period for 181 secs by voltage clamp technique; assay type: cell-based
[7] = molecular target: T1, Neuronal acetylcholine receptor subunit alpha-7; assay: Antagonist activity at human alpha7 nAChR expressed in Xenopus laevis oocytes assessed as inhibition of acetylcholine-induced current response at 300 uM administered for 12 secs followed by washout period for 181 secs by voltage clamp technique relative to acetylcholine; assay type: cell-based
[8] = molecular target: T1, Neuronal acetylcholine receptor subunit alpha-7; assay: Partial agonist activity at human alpha7 nAChR expressed in Xenopus laevis oocytes assessed as induction of maximum current response at 10 to 300 uM administered for 12 secs followed by washout period for 181 secs by voltage clamp technique; assay type: cell-based
[9] = molecular target: T2, Neuronal acetylcholine receptor; alpha3/beta2 (Homo sapiens) (UniProt P17787+P32297); assay: Agonist activity at human […] alpha3beta2 nAChR expressed in Xenopus laevis oocytes assessed as induction of current response at 30 uM administered for 6 secs followed by washout period for 241 secs by in presence of acetylcholine voltage clamp technique; assay type: cell-based
[10] = molecular target: T1, Neuronal acetylcholine receptor subunit alpha-7; assay: Induction of human alpha7 nAChR desensitization expressed in Xenopus laevis oocytes at 100 uM pretreated for 30 secs followed by PNU-120596 administered for 10 secs by voltage clamp technique relative to acetylcholine; assay type: cell-based
[11] = Hydrolytic stability of compound in water at 8.4 mM up to 60 days by [1H]-NMR spectroscopy; assay type: physicochemical; settings: buffer, 1440 h, 8400 µM
[12] = molecular target: T2, Neuronal acetylcholine receptor; alpha3/beta2 (Homo sapiens); assay: Antagonist activity at human ganglionic alpha3beta2 nAChR expressed in Xenopus laevis oocytes assessed as inhibition of acetylcholine-induced current response at 100 uM administered for 6 secs followed by washout period for 241 secs by in presence of acetylcholine voltage clamp technique; assay type: cell-based
[13] = Hydrolytic stability of compound in Ringers-D2O buffer at 8.4 mM at pH 7.2 up to 60 days by [1H]-NMR spectroscopy; assay type: physicochemical; settings: pH 7.2, 1440 h, 8400 µM
[14] = molecular target: T2, Neuronal acetylcholine receptor; alpha3/beta2 (Homo sapiens); assay: Antagonist activity at human […] alpha3beta2 nAChR expressed in Xenopus laevis oocytes assessed as inhibition of acetylcholine-induced current response at 30 uM administered for 6 secs followed by washout period for 241 secs by in presence of acetylcholine voltage clamp technique; assay type: cell-based
[15] = molecular target: T3, Neuronal acetylcholine receptor; alpha4/beta2 (Homo sapiens, UniProt P17787+P43681); assay: Antagonist activity at human alpha4beta2 nAChR expressed in Xenopus laevis oocytes assessed as inhibition of acetylcholine-induced current response administered for 6 secs followed by washout period for 241 secs by voltage clamp technique; assay type: cell-based
[16] = molecular target: T3, Neuronal acetylcholine receptor; alpha4/beta2; assay: Agonist activity at human alpha4beta2 nAChR expressed in Xenopus laevis oocytes assessed as induction of current response administered for 6 secs followed by washout period for 241 secs by voltage clamp technique; assay type: cell-based
[17] = molecular target: T2, Neuronal acetylcholine receptor; alpha3/beta2 (Homo sapiens); assay: Agonist activity at human ganglionic alpha3beta2 nAChR expressed in Xenopus laevis oocytes assessed as induction of current response at 30 uM administered for 6 secs followed by washout period for 241 secs by in presence of acetylcholine voltage clamp technique; assay type: cell-based

T1 sequence (P36544 whole entry): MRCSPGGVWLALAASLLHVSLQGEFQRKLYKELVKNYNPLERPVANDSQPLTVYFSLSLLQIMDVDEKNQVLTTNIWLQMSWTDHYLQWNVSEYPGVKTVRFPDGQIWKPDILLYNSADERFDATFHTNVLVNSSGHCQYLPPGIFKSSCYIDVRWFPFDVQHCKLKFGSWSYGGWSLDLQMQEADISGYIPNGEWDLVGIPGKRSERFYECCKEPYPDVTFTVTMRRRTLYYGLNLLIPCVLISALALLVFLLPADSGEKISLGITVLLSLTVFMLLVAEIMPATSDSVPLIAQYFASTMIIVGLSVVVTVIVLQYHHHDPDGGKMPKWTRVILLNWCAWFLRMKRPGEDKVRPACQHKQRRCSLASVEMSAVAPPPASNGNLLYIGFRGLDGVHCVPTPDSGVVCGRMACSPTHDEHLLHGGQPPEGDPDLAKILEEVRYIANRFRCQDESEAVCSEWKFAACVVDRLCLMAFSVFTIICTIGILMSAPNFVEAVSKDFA
T3 sequence (P17787 whole entry): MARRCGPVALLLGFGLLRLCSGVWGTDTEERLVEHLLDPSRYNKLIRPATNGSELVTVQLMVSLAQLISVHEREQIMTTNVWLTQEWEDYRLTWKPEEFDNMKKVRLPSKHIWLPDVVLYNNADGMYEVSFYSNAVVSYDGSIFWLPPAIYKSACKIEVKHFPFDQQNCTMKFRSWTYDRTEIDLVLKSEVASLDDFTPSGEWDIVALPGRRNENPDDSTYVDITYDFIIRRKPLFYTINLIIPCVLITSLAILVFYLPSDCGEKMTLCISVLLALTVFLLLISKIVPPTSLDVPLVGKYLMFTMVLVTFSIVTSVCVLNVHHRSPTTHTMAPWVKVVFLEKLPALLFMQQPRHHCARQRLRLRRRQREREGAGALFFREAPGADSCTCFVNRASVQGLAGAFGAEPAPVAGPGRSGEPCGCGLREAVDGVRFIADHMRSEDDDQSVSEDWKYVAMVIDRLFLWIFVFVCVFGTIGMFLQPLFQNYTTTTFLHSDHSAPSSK
T3 sequence (P43681 whole entry): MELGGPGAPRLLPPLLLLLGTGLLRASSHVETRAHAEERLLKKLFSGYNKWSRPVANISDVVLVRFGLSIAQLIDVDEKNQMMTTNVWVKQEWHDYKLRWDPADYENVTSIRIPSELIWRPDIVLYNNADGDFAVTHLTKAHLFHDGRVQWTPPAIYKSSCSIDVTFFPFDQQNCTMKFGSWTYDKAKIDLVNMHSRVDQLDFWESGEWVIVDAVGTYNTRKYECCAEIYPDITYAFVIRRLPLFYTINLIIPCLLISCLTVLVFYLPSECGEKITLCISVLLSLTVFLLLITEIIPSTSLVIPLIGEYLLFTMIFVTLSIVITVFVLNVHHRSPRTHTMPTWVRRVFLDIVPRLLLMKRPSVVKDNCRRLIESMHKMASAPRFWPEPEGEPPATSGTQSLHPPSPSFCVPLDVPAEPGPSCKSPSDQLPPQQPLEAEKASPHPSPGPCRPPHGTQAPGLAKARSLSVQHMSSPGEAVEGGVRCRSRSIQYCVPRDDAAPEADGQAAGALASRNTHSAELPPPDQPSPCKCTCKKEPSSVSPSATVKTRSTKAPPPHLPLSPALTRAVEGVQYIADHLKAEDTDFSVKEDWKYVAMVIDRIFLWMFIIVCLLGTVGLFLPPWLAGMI

## CC[N+]1(c2ccccc2)CCSCC1
[1]
  Activity: inactive
[2]
  Activity: inactive
[3]
  Activity: inactive
[4]
  Activity: inactive

## CC[N+]1(CC)CCN(c2ccccc2)CC1
[1]
  Activity: Active
[2]
  Activity: Active
[5]
  fold change (FC): 0.47
[6]
  IC50: 55 µM
[3]
  Activity: Active

## CCN1CCN(c2ccccc2)CC1
[7]
  inhibition: < 20%
[1]
  Activity: inactive
[8]
  Activity: inactive
[2]
  Activity: inactive
[5]
  fold change (FC): 0
[3]
  Activity: inactive

## CC[S+]1CCN(c2ccccc2)CC1.O=S(=O)([O-])C(F)(F)F
[9]
  Activity: inactive
[1]
  fold change (FC): 5
[10]
  Activity: Active
[11]
  Stability: Stable
[2]
  fold change (FC): 3
[5]
  fold change (FC): 0.07
[6]
  IC50: 73 µM
[12]
  inhibition: Active
[3]
  fold change (FC): 25
[13]
  Stability: Stable
[14]
  inhibition: Active
[15]
  IC50: 51 µM
[4]
  EC50: 40 µM
[16]
  Activity: inactive
[17]
  Activity: inactive
